The values that follow come from US10532985B2, “Heterocycle and carbocycle derivatives having TRKA inhibitory activity” (Shionogi & Co., Ltd., priority 2014, dated 2020).

The target of the first experiment is T1, human TrkA (Homo sapiens, UniProt P04629).
T1 construct: purchased Lifetechnologies PV3144
T1 sequence (P04629 33-796): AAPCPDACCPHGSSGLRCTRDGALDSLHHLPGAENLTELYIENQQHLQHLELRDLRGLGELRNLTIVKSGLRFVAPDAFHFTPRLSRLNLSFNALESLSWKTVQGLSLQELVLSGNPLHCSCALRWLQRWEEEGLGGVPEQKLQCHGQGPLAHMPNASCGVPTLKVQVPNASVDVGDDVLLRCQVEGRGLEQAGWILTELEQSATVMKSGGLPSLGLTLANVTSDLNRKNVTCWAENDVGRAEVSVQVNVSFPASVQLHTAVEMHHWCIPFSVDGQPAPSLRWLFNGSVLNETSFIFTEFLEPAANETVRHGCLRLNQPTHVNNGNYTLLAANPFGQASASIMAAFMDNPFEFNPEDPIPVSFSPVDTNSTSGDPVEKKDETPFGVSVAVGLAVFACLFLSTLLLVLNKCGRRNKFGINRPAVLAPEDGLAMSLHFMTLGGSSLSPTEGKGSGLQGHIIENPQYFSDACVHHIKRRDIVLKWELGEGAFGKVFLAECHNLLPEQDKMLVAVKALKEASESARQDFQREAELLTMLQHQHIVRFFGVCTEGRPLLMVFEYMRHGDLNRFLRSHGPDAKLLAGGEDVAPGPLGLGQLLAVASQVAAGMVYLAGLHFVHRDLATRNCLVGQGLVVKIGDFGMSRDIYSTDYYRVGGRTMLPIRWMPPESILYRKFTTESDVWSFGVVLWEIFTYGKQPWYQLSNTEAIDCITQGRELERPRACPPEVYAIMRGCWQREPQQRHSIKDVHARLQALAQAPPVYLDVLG
The experiment is described as follows: Test Example 2-2: Human TrkA Inhibition Assay. Type of experiment: biochemical. The conditions noted are these: class symbols, read-out: IC50_nM. The protocol:
Seven point five μL per well of human TrkA (PV3144, Lifetechnologies, final concentration: 1 nmol/L) suspended in the assay buffer (100 mmol/L 4-(2-hydroxyethyl)-1-piperazineethanesulfonic acid (HEPES), 10 mmol/L magnesium chloride, 0.003 vol % Brij-35, 0.004 vol % Tween20 and 1 mmol/L dithiothreitol (DTT)) was applied in a 384 well plate and the plate was pre-incubated for 15 min at room temperature with 0.4 μL of each compound (final concentration: […]) dissolved in DMSO. Then, fluorescent substrate (FL-peptide 27, 760424, PerkinElmer, final concentration: 1.5 μmol/L) and ATP (final concentration […]) dissolved in the assay buffer was added in each well. After the incubation of 120 min at 37° C., fifteen μL of termination buffer (100 mmol/L HEPES, 40 mmol/L ethylenediaminetetraacetic acid (EDTA), 10 mmol/L magnesium chloride, 0.003 vol % Brij-35, 0.004 vol % Tween20, 1 mmol/L DTT and 0.16 vol % Coating Reagent 3) was added in each well to stop the enzyme reaction. Fluorescent intensities (FI) of phosphorylated and non-phosphorylated fluorescent substrates were measured by LabChip EZReader II (Caliper LifeSciences, Inc.), and conversion ratio (CR) was calculated by the following formula-1. The CR in the well applied with DMSO alone was used as a negative control and the CR in the well without applying TrkA was used as a positive control. The inhibitory effect of each compound on TrkA phosphorylation was calculated by the following formula-2. CR (%)=(FI of phosphorylated substrate/(FI of phosphorylated substrate+FI of non-phosphorylated substrate))×100 (Formula-1) Phosphorylation inhibition (%)=(1−(CR with compound treatment−CR of positive control)/(CR of negative control−CR of positive control))×100 (Formula-2) Inhibitory effect on TrkA phosphorylation (%)=(1−(CR in compound treated well−CR in positive control)/(CR in negative control−CR in positive control))×100.
The 50/o inhibitory concentration (IC50) was determined by the logistic regression using the inhibition data in 10 points at a range of 2 μmol/L to 0.1 nmol/L or 200 μmol/L to 10 nmol/L).
In the case of `COCC[C@@H]1C[C@@H](NC(=O)Nc2c(C)c(-c3cnn(C)c3)nn2-c2ccccc2)[C@](O)(c2ccccc2)C1` [Compound I-273], the IC50 was more than 1000 nM.

The same experiment, now with this note: human TrkA 1 nmol/L, 120 min at 37° C., read-out: TrkA inhibition IC50.
On to `COCC[C@@H]1C[C@@H](NC(=O)Nc2c(C)c(-c3cnc(CO)nc3)nn2-c2ccccc2)[C@H](c2ccccc2)C1` [Compound I-269], for which the IC50 is 1.3 nM.
As to `COCC[C@@H]1C[C@@H](NC(=O)Nc2c(C)c(-c3cnc(C)nc3)nn2-c2ccccc2)[C@H](c2ccc(F)c(F)c2)C1` [Compound I-254], the IC50 came out at 0.73 nM.
Take `Cc1c(-c2cnn(C)c2)nn(-c2ccccc2)c1NC(=O)N[C@@H]1CN(CCOC2CC2)C[C@H]1c1ccc(F)c(F)c1` [Compound I-252]: the IC50 was 3.6 nM.
`COCC[C@@H]1C[C@@H](NC(=O)Nc2c(C)c(-c3cnn(C)c3)nn2-c2ccccc2)[C@H](c2ccccc2)[C@H]1C` [Compound I-241]: the IC50 worked out at 0.9 nM.
On the same count and under the same terms, in the case of `Cc1c(-c2cnn(C)c2)nn(-c2ccccc2)c1NC(=O)N[C@@H]1CN(CCOC(F)F)C[C@H]1c1ccccc1` (racemic) [Compound I-248] it was 18 nM; in that of `Cc1c(-c2cnn(C)c2)nn(-c2ccccc2)c1NC(=O)N[C@@H]1CN(Cc2ccc(Cl)o2)C[C@H]1c1ccc(F)c(F)c1` [Compound I-202], 0.71 nM; in that of `COCCN1C[C@@H](NC(=O)Nc2c(C)c(-c3cnn(C)c3)nn2-c2ccccc2)[C@H](c2ccc3nonc3c2)C1` (racemic) [Compound I-209], 10 nM.
In the case of `Cc1c(-c2cnn(C)c2)nn(-c2ccccc2)c1NC(=O)N[C@@H]1C[C@@H](Oc2ccncc2)C[C@H]1c1ccccc1` (racemic) [Compound I-225], the IC50 was found to be 120 nM.
Consider `COCCN1C[C@@H](NC(=O)Nc2c(C)c(-c3cnn(C)c3)nn2-c2ccccc2)[C@H](C2=CCCCC2)C1` (racemic) [Compound I-218], for which the IC50 came to 270 nM.

The same experiment, now with this note: human TrkA inhibition, class symbols A/B/C, read-out: IC50_nM.
With `COCCC1C[C@@H](NC(=O)Nc2c(C)c(-c3ccnc(C)c3)nn2-c2ccccc2)[C@H](c2ccccc2)C1` (stereo partly shown) [Compound I-234], the IC50 was less than 100 nM.
`Cc1c(-c2cnn(C)c2)nn(-c2ccccc2)c1NC(=O)N[C@@H]1CN(Cc2cc(Br)co2)C[C@H]1c1ccc(F)c(F)c1` [Compound I-189]: the IC50 is less than 100 nM.
Still for that read-out and setting: the value for `COCCC1C[C@@H](NC(=O)Nc2c(C)c(-c3cnn(C)c3)nn2-c2ccccc2)[C@H](c2ccc(F)c(F)c2)N1CC#N` (stereo partly shown) [Compound I-179] was 100 to 1000 nM; that for `Cc1c(-c2cnn(C)c2)nn(-c2ccccc2)c1NC(=O)N[C@@H]1CN(C(C)C)C[C@H]1c1ccc(F)c(F)c1` [Compound I-194] was more than 1000 nM; that for `CCOc1nn(-c2ccccc2)c(NC(=O)N[C@@H]2CC(CCOC)C[C@H]2c2ccccc2)c1C` (stereo partly shown) [Compound I-212] was less than 100 nM.
With `C=C[C@@H]1C[C@@H](NC(=O)Nc2c(C)c(-c3cnn(C)c3)nn2-c2ccccc2)[C@H](c2ccc(F)c(F)c2)N1` [Compound I-224], the IC50 was in the range of 100 to 1000 nM.
Take `Cc1c(-c2cnn(C)c2)nn(-c2ccccc2)c1NC(=O)N[C@@H]1CN(CCOC(C)C)C[C@H]1c1ccc(F)c(F)c1` [Compound I-217]: the IC50 was less than 100 nM.
With `COCC[C@@H]1C[C@@H](NC(=O)Nc2c(C)c(-c3cnn(C)c3)nn2-c2ccccc2)[C@H](c2ccccc2)[C@H]1CO` [Compound I-226], the IC50 is 100 to 1000 nM.
On to `COCCC1C[C@@H](NC(=O)Nc2cc(-c3ccc(C)nc3)nn2C)[C@H](c2ccccc2)C1` (stereo partly shown) [Compound I-220], for which the IC50 fell in the range of 100 to 1000 nM.
Consider `COCC=C1C[C@@H](NC(=O)Nc2c(C)c(-c3cnn(C)c3)nn2-c2ccccc2)[C@H](c2ccccc2)C1` [Compound I-261], for which the IC50 was less than 100 nM.
Turning to `COCCC1C[C@@H](NC(=O)Nc2c(C)c(-c3cnn(C)c3)nn2-c2ccccc2)[C@H](c2ccc(F)c(F)c2)N1Cc1ccccc1` (stereo partly shown) [Compound I-196], the IC50 is more than 1000 nM.
On to `Cc1c(-c2cnn(C)c2)nn(-c2ccccc2)c1NC(=O)N[C@@H]1C[C@@H](Oc2ccccn2)C[C@H]1c1ccccc1` (racemic) [Compound I-223], for which the IC50 was more than 1000 nM.
As to `CCOc1nn(-c2ccccc2)c(NC(=O)N[C@@H]2C[C@@H](CCOC)[C@H](CO)[C@H]2c2ccccc2)c1C` [Compound I-227], the IC50 was 100 to 1000 nM.
The same measure, in the same setting: in the case of `Cc1c(-c2cnn(C)c2)nn(-c2ccccc2)c1NC(=O)N[C@@H]1CN(Cc2ccccn2)C[C@H]1c1ccc(F)c(F)c1` [Compound I-240] it was 100 to 1000 nM.
On the same count and under the same terms, the value for `CCc1ccc(CN2C[C@@H](NC(=O)Nc3c(C)c(-c4cnn(C)c4)nn3-c3ccccc3)[C@H](c3ccc(F)c(F)c3)C2)o1` [Compound I-192] was 100 to 1000 nM; that for `COCC[C@@H]1C[C@@H](NC(=O)Nc2c(C)c(C3=CCN(C(=O)OC(C)(C)C)CC3)nn2-c2ccccc2)[C@H](c2ccccc2)C1` [Compound I-265] was less than 100 nM; that for `COCCN1C[C@@H](NC(=O)Nc2c(C)c(-c3cnn(C)c3)nn2-c2ccccc2)[C@H](c2ccc(F)c(F)c2)C1` [Compound I-250] was less than 100 nM.
With `COCC[C@@H]1C[C@@H](NC(=O)Nc2c(C)c(C3=CCNCC3)nn2-c2ccccc2)[C@H](c2ccc(F)c(F)c2)N1C` [Compound I-258], the IC50 was less than 100 nM.
With `COCC[C@@H]1C[C@@H](NC(=O)Nc2c(C)c(-c3ccc(OC)nc3)nn2-c2ccccc2)[C@H](c2ccc(F)c(F)c2)N1` [Compound I-257], the IC50 was less than 100 nM.
As to `COCC[C@@H]1C[C@@H](NC(=O)Nc2c(C)c(-c3ccc(C(=O)O)cc3)nn2-c2ccccc2)[C@H](c2ccc(F)c(F)c2)N1C` [Compound I-237], the IC50 was less than 100 nM.
On to `COCC(C(=O)OC)[C@@H]1C[C@@H](NC(=O)Nc2c(C)c(-c3cnn(C)c3)nn2-c2ccccc2)[C@H](c2ccccc2)C1` (mixture of isomers) [Compound I-244], for which the IC50 fell in the range of 100 to 1000 nM.
Turning to `CCN1C(CCOC)C[C@@H](NC(=O)Nc2c(C)c(-c3cnn(C)c3)nn2-c2ccccc2)[C@@H]1c1ccc(F)c(F)c1` (stereo partly shown) [Compound I-178], the IC50 is less than 100 nM.
With `COCCN1C[C@@H](NC(=O)Nc2c(C)c(-c3cnn(C)c3)nn2-c2ccccc2)[C@H](c2ccnc(C3=NC(=O)CS3)c2)C1` (racemic) [Compound I-195], the IC50 is more than 1000 nM.
Turning to `COCC[C@@H]1C[C@@H](NC(=O)Nc2c(C)c(-c3cnn(C)c3)nn2-c2ccccc2)[C@H](c2ccc(F)c(F)c2)N1` [Compound I-208], the IC50 is less than 100 nM.
In the case of `CCNC(=O)c1ccc(-c2nn(-c3ccccc3)c(NC(=O)N[C@@H]3C[C@@H](CCOC)C[C@H]3c3ccccc3)c2C)cc1` [Compound I-264], the IC50 is less than 100 nM.
On to `COCC[C@@H]1C[C@@H](NC(=O)Nc2c(C)c(C3=CCNCC3)nn2-c2ccccc2)[C@H](c2ccc(F)c(F)c2)N1` [Compound I-247], for which the IC50 was less than 100 nM.
Turning to `Cc1c(-c2cnn(C)c2)nn(-c2ccccc2)c1NC(=O)N[C@@H]1CC(C)C[C@H]1c1ccc(F)c(F)c1` (stereo partly shown) [Compound I-163], the IC50 was 100 to 1000 nM.
As to `Cc1c(-c2cnn(C)c2)nn(-c2ccccc2)c1NC(=O)N[C@@H]1CN(Cc2ccc(C(=O)O)o2)C[C@H]1c1ccc(F)c(F)c1` [Compound I-188], the IC50 is more than 1000 nM.
The same measure, in the same setting: in the case of `COCCC1C[C@@H](NC(=O)Nc2cc(-c3ccccc3)nn2C)[C@H](c2ccccc2)N1` (stereo partly shown) [Compound I-216] it was 100 to 1000 nM.
Take `Cc1c(-c2cnn(C)c2)nn(-c2ccccc2)c1NC(=O)N[C@@H]1CN(Cc2ccc(CO)o2)C[C@H]1c1ccc(F)c(F)c1` [Compound I-191]: the IC50 was 100 to 1000 nM.
In the case of `CO[C@@H]1C[C@H](NC(=O)Nc2c(C)c(-c3cnn(C)c3)nn2-c2ccccc2)[C@@H](c2ccccc2)C1` (racemic) [Compound I-233], the IC50 was more than 1000 nM.
Regarding `CNC(=O)c1ccc(-c2cc(NC(=O)N[C@@H]3CC(CCOC)C[C@H]3c3ccccc3)n(C)n2)cc1` (stereo partly shown) [Compound I-200], the IC50 was more than 1000 nM.
With `COCCN1C[C@@H](NC(=O)Nc2c(C)c(-c3cnn(C)c3)nn2-c2ccccc2)[C@H](c2ccnc(OC)c2)C1` (racemic) [Compound I-228], the IC50 was in the range of 100 to 1000 nM.
As for `CCO[C@@H]1C[C@@H](NC(=O)Nc2c(C)c(-c3cnn(C)c3)nn2-c2ccccc2)[C@H](c2ccccc2)C1` (racemic) [Compound I-211], the IC50 was more than 1000 nM.
Take `COCCN1C[C@@H](NC(=O)Nc2c(C)c(-c3cnn(C)c3)nn2-c2ccccc2)[C@H](c2ccccc2)[C@H]1CF` [Compound I-251]: the IC50 was in the range of 100 to 1000 nM.
With `COCC[C@@H]1C[C@@H](NC(=O)Nc2c(C)c(-c3ccnc(C)c3)nn2-c2ccccc2)[C@H](c2ccc(F)c(F)c2)N1C` [Compound I-235], the IC50 is less than 100 nM.
